≈ marks a conversion by molar mass, not a printed value. Where two headings read alike, the source gives them in different places.
Assays:
in vitro = conditions: human
Coxsackie-virus B1 = assay: Cytopathic effect (CPE) inhibition assay; type: cell-based, Coxsackievirus B1; conditions: Enterovirus B, HeLa37, 48 h, HeLa, 37° C., 2 days
[1] = Table 3, read-out: EC50 Coxsackie-virus B1
[2] = Table 4, read-out: Coxsackie-virus B1 EC50

COc1cc(C(C)C)ccc1C1(O)C(=O)c2c(NC(C)=O)ccc([N+](=O)[O-])c2C1=O (centres unmarked) [Example 42, N-(2-Hydroxy-2-(4-isopropyl-2-methoxyphenyl)-7-nitro-1,3-dioxo-2,3-dihydro-1H-inden-4-yl)acetamide]
melting point: 110 to 115 °C
CC50 (in vitro; CC50): 71.1 µg/mL (≈ 172 µM)

CSc1ccccc1C1(O)C(=O)c2ccccc2C1=O [Example 57]
melting point: 191 to 193 °C
CC50 (in vitro; CC50): 48.2 µg/mL (≈ 170 µM)

COc1cc(C(C)C)ccc1C1(NC(N)=O)C(=O)c2ccccc2C1=O [Example 61, 1-(2,3-Dihydro-2-(4-isopropyl-2-methoxyphenyl)-1,3-dioxo-1H-inden-2-yl)urea]
melting point: 272 to 274 °C
CC50 (in vitro; CC50): > 117 µg/mL

COc1cc(C(C)C)ccc1C1(O)C(=O)c2c(N)ccc(N)c2C1=O [Example 46, 4,7-Diamino-2-hydroxy-2-(4-isopropyl-2-methoxyphenyl)-2H-inden-1,3-dione]
melting point: 243 to 247 °C
CC50 (in vitro; CC50): 64 µg/mL (≈ 188 µM)

CC(C)C(=O)NC1(c2ccc(C(C)C)cc2OC(=O)C(C)C)C(=O)c2ccccc2C1=O [Example 50, 2-(2-Isobutylamido-1,3-dioxo-2,3-dihydro-1H-inden-2-yl)-5-isopropylphenyl isobutyrate]
EC50 (Coxsackie-virus B1; [1]): 0.0112 µg/mL (≈ 0.0257 µM)
CC50 (in vitro; CC50): 44.3 µg/mL (≈ 102 µM)

CC(=O)Oc1c(Cl)cc(Cl)cc1C1(OC(C)=O)C(=O)c2ccccc2C1=O [Example 5, 2-(2-Acetoxy-1,3-dioxo-2,3-dihydro-1H-inden-2-yl)-4,6-dichlorophenyl acetate]
melting point: 178 to 180 °C
CC50 (in vitro; CC50): 26 µg/mL

CC(=O)Oc1cc(C(C)C)ccc1C1(OC(C)=O)C(=O)c2cccc([N+](=O)[O-])c2C1=O (centres unmarked) [Example 37, Acetic acid 2-(2-acetoxy-4-isopropyl-phenyl)-4-nitro-1,3-dioxo-indan-2-yl ester]
melting point: 94 to 98 °C
CC50 (in vitro; CC50): 62.7 µg/mL (≈ 147 µM)

COc1cc(C(C)C)ccc1C1(O)C(=O)c2ccc(N)c(N)c2C1=O (centres unmarked) [Example 47, 4,5-Diamino-2-hydroxy-2-(4-isopropyl-2-methoxyphenyl)-2H-inden-1,3-dione]
melting point: 272 to 274 °C
CC50 (in vitro; CC50): 50.9 µg/mL (≈ 150 µM)

COc1ccc(OC(C)=O)c(C2(OC(C)=O)C(=O)c3ccccc3C2=O)c1 [Example 7, 2-(2-Acetoxy-1,3-dioxo-2,3-dihydro-1H-inden-2-yl)-4-methoxyphenyl acetate]
melting point: 184 to 186 °C
CC50 (in vitro; CC50): > 100 µg/mL

C=CC(=O)Oc1cc(C(C)C)ccc1C1(OC(=O)C=C)C(=O)c2ccccc2C1=O [Example 32, 2-(2-(Acryloyloxy)-1,3-dioxo-2,3-dihydro-1H-inden-2-yl)-5-isopropylphenyl acrylate]
EC50 (Coxsackie-virus B1; [1]): < 0.01 µg/mL
CC50 (in vitro; CC50): 28.7 µg/mL (≈ 70.9 µM)

CCNC(=O)NC1(c2ccc(C(C)C)cc2OC)C(=O)c2ccccc2C1=O [Example 60, 1-Ethyl-3-(2,3-dihydro-2-(4-isopropyl-2-methoxyphenyl)-1,3-dioxo-1H-inden-2-yl)urea]
melting point: 267 to 269 °C
CC50 (in vitro; CC50): 68.9 µg/mL (≈ 181 µM)

COC1(c2ccc(C(C)C)cc2O)C(=O)c2ccccc2C1=O [Example 28, 2-(2-Hydroxy-4-isopropylphenyl)-2-methoxy-1H-inden-1,3(2H)-dione]
melting point: 272 to 274 °C
CC50 (in vitro; CC50): 9.2 µg/mL (≈ 29.6 µM)

CC(=O)Oc1ccc([N+](=O)[O-])cc1C1(OC(C)=O)C(=O)c2ccccc2C1=O [Example 9, 2-(2-Acetoxy-1,3-dioxo-2,3-dihydro-1H-inden-2-yl)-4-nitrophenyl acetate]
melting point: 163 to 167 °C
CC50 (in vitro; CC50): > 100 µg/mL

CC(=O)Oc1cc(C)c(C)c(C)c1C1(OC(C)=O)C(=O)c2ccccc2C1=O [Example 16, 2-(2-Acetoxy-1,3-dioxo-2,3-dihydro-1H-inden-2-yl)-3,4,5-trimethylphenyl acetate]
melting point: 238 to 242 °C
CC50 (in vitro; CC50): 8.87 µg/mL

COc1cc(C(C)C)ccc1C1(O)C(=O)c2ccc(N)c(NC(C)=O)c2C1=O (centres unmarked) [Example 45, N-(5-Amino-2-hydroxy-2-(4-isopropyl-2-methoxyphenyl)-1,3-dioxo-2,3-dihydro-1H-inden-4-yl)acetamide]
melting point: 124 to 131 °C
CC50 (in vitro; CC50): > 117 µg/mL

COc1cc(C(C)C)ccc1C1(NC(=O)OC(C)C)C(=O)c2ccccc2C1=O [Example 62, Isopropyl 2-(4-isopropyl-2-methoxyphenyl)-1,3-dioxo-2,3-dihydro-1H-inden-2-ylcarbamate]
melting point: 159 to 161 °C
CC50 (in vitro; CC50): 11.3 µg/mL (≈ 28.5 µM)

CC(=O)Oc1cc(-c2ccccc2)ccc1C1(OC(C)=O)C(=O)c2ccccc2C1=O [Example 8, 4-(2-Acetoxy-1,3-dioxo-2,3-dihydro-1H-inden-2-yl)biphenyl-3-yl acetate]
melting point: 165 to 167 °C
CC50 (in vitro; CC50): 7.91 µg/mL

CC(=O)Oc1cc(C)cc(C2(OC(C)=O)C(=O)c3ccccc3C2=O)c1OC(C)=O [Example 18, Acetic acid 2-(2,3-diacetoxy-5-methyl-phenyl)-1,3-dioxo-indan-2-yl ester]
melting point: 192 to 194 °C
CC50 (in vitro; CC50): > 100 µg/mL

CCc1ccc(OC(C)=O)c(C2(OC(C)=O)C(=O)c3ccccc3C2=O)c1 [Example 12, 2-(2-Acetoxy-1,3-dioxo-2,3-dihydro-1H-inden-2-yl)-4-ethylphenyl acetate]
melting point: 153 to 154 °C
CC50 (in vitro; CC50): 74.1 µg/mL

CSc1ccc(C2(O)C(=O)c3ccccc3C2=O)cc1 [Example 58]
melting point: 153 to 155 °C
CC50 (in vitro; CC50): 47.8 µg/mL (≈ 168 µM)

COc1cc(C(C)C)ccc1C1(N=[N+]=[N-])C(=O)c2ccccc2C1=O [Example 52, 2-Azido-2-(4-isopropyl-2-methoxyphenyl)-2H-inden-1,3-dione]
melting point: 175 to 177 °C
CC50 (in vitro; CC50): 27.7 µg/mL (≈ 82.5 µM)

COC1(c2ccc(C(C)C)cc2OCc2ccccc2)C(=O)c2ccccc2C1=O [Example 25, 2-(2-Benzyloxy-4-isopropyl-phenyl)-2-methoxy-indan-1,3-dione]
melting point: 140 to 144 °C
CC50 (in vitro; CC50): > 100 µg/mL

CCC(=O)Nc1cc(C)c(C)cc1C1(O)C(=O)c2ccccc2C1=O [Example 87, N-(2-(2-Hydroxy-1,3-dioxo-2,3-dihydro-1H-inden-2-yl)-4,5-dimethylphenyl)propionamide]
EC50 (Coxsackie-virus B1; [2]): 0.019 µg/mL (≈ 0.0563 µM)
CC50 (in vitro; Picorna-virus CC50): 8.31 µg/mL (≈ 24.6 µM)

CCCCCCCC(=O)NC1(c2ccc(C(C)C)cc2OC(=O)CCCCCCC)C(=O)c2cccc(N)c2C1=O (centres unmarked) [Example 91, 2-(4-Amino-2-octanamido-1,3-dioxo-2,3-dihydro-1H-inden-2-yl)-5-isopropylphenyl octanoate]
EC50 (Coxsackie-virus B1; [2]): 0.015 µg/mL (≈ 0.0267 µM)
CC50 (in vitro; Picorna-virus CC50): 40 µg/mL (≈ 71.1 µM)

CC(C)c1ccc(C2(OC(=O)C(C)(C)C)C(=O)c3ccccc3C2=O)c(OC(=O)C(C)(C)C)c1 [Example 29, 2-(1,3-Dioxo-2-(pivaloyloxy)-2,3-dihydro-1H-inden-2-yl)-5-isopropylphenyl pivalate]
melting point: 121 to 124 °C
CC50 (in vitro; CC50): > 100 µg/mL

CC(C)c1ccc(C2(O)Cc3ccccc3C2=O)c(O)c1 (centres unmarked) [Example 51, 2-Hydroxy-2-(2-hydroxy-4-isopropylphenyl)-2,3-dihydro-1H-inden-1-one]
melting point: 144 to 146 °C
CC50 (in vitro; CC50): 9.34 µg/mL (≈ 33.1 µM)

CC(=O)Oc1ccc(C(C)(C)C)cc1C1(OC(C)=O)C(=O)c2ccccc2C1=O [Example 14, 2-(2-Acetoxy-1,3-dioxo-2,3-dihydro-1H-inden-2-yl)-4-tert-butylphenyl acetate]
melting point: 195 to 196 °C
CC50 (in vitro; CC50): 8.26 µg/mL

COc1cc(C(C)C)ccc1C1(N)C(=O)c2ccccc2C1=O [Example 53, 2-Amino-2-(4-isopropyl-2-methoxyphenyl)-2H-inden-1,3-dione]
melting point: 164 to 166 °C
CC50 (in vitro; CC50): 10.2 µg/mL (≈ 33 µM)

CC(=O)Oc1ccc(-c2ccccc2)cc1C1(OC(C)=O)C(=O)c2ccccc2C1=O [Example 10, 3-(2-Acetoxy-1,3-dioxo-2,3-dihydro-1H-inden-2-yl)biphenyl-4-yl acetate]
melting point: 196 to 198 °C
CC50 (in vitro; CC50): 7.85 µg/mL

COc1cc(C(C)C)ccc1C1(O)C(=O)c2ccc([N+](=O)[O-])c(NC(C)=O)c2C1=O (centres unmarked) [Example 43, N-(2-Hydroxy-2-(4-isopropyl-2-methoxyphenyl)-5-nitro-1,3-dioxo-2,3-dihydro-1H-inden-4-yl)acetamide]
melting point: 199 to 201 °C
CC50 (in vitro; CC50): 61.7 µg/mL (≈ 150 µM)

COc1cc(C(C)C)ccc1C1(Br)C(=O)c2cccc(NC(C)=O)c2C1=O (centres unmarked) [Example 65, N-(2-Bromo-2-(4-isopropyl-2-methoxyphenyl)-1,3-dioxo-2,3-dihydro-1H-inden-4-yl)acetamide]
melting point: 143 to 145 °C
CC50 (in vitro; CC50): 11.2 µg/mL (≈ 25.9 µM)

COC(=O)NC1(c2ccc(C(C)C)cc2OC)C(=O)c2ccccc2C1=O [Example 59, Methyl 2-(4-isopropyl-2-methoxyphenyl)-1,3-dioxo-2,3-dihydro-1H-inden-2-ylcarbamate]
melting point: 153 to 155 °C
CC50 (in vitro; CC50): 53.7 µg/mL (≈ 146 µM)

CCCc1ccc(OC(C)=O)c(C2(OC(C)=O)C(=O)c3ccccc3C2=O)c1 [Example 11, 2-(2-Acetoxy-1,3-dioxo-2,3-dihydro-1H-inden-2-yl)-4-propylphenyl acetate]
melting point: 108 to 111 °C
CC50 (in vitro; CC50): 8.42 µg/mL

COc1cc(C(C)C)ccc1C1(NC(C)=O)C(=O)c2cccc(NC(C)=O)c2C1=O (centres unmarked) [Example 67, N,N′-(2-(4-Isopropyl-2-methoxyphenyl)-1,3-dioxo-2,3-dihydro-1H-inden-2,4-diyl)diacetamide]
melting point: 241 to 243 °C
CC50 (in vitro; CC50): 54.6 µg/mL (≈ 134 µM)

COc1cc(C(C)C)ccc1C1(N)C(=O)c2cccc(NC(C)=O)c2C1=O (centres unmarked) [Example 66, N-(2-Amino-2-(4-isopropyl-2-methoxyphenyl)-1,3-dioxo-2,3-dihydro-1H-inden-4-yl)acetamide]
melting point: 183 to 185 °C
CC50 (in vitro; CC50): 26.7 µg/mL (≈ 72.8 µM)

CONC(=O)NC1(c2ccc(C(C)C)cc2OC)C(=O)c2ccccc2C1=O [Example 63, 1-(2-(4-Isopropyl-2-methoxyphenyl)-1,3-dioxo-2,3-dihydro-1H-inden-2-yl)-3-methoxy urea]
melting point: 153 to 155 °C
CC50 (in vitro; CC50): > 117 µg/mL

CCC(C)c1ccc(OC(C)=O)c(C2(OC(C)=O)C(=O)c3ccccc3C2=O)c1 (centres unmarked) [Example 13, 2-(2-Acetoxy-1,3-dioxo-2,3-dihydro-1H-inden-2-yl)-4-sec-butylphenyl acetate]
melting point: 118 to 120 °C
CC50 (in vitro; CC50): 7.93 µg/mL
